The text below walks through data of patent US6410012B1, “Antimicrobial mediated bacterial DNA delivery” (The United States of America as represented by the …, priority 1997, dated 2002).

Experiment [1] relates to BHK cells. Description: β-galactosidase activity in lysates of BHK cells infected with Shigella strains (plasmid DNA delivery). It counts as cell-based, baby hamster. Conditions: for ability of the antimicrobial to mediate bacterial plasmid DNA delivery: attenuated Shigella flexneri not programmed to lyse, in BHK cells. As to the method: (§1) The protocol used for these experiments consisted of diluting an overnight culture of the bacteria 1 in 50 and allowing it to grow to midlog phase, approximately 2.5 hours. The midlog cultures were then concentrated in Hank's Balanced Salts by centrifugation to approximately 10^9 bacteria per milliliter and a small aliquot was taken to determine the midlog bacterial count. Two milliliters of bacteria were added to the appropriate semi-confluent flask of BHK cells and allowed to incubate for ninety minutes at 37° C. and 5% CO2. After the incubation, the cells were rinsed with Hank's Balanced Salts (Sigma). In most cases the flasks were treated with complete DMEM containing […] gentamicin to kill all extracellular bacteria. Either antibiotic was then added at the designated time.
Harvesting of cells was carried out as follows. At the appropriate time point media was removed from the flasks and the flasks were rinsed thoroughly with Hank's Balanced Salts followed by Edda Twiddy's EDTA. Flasks were then treated with 5 milliliters of Trypsin-EDTA for 5 minutes at 37° C. and 5% CO2 to lift the adherent mammalian cells from the flask. Ten milliliters of room temperature DMEM with serum was added to inactivate the Trypsin-EDTA. The cells were pelleted at 2000 rpm for 12 minutes at room temperature and resuspended in 10 milliliters of phosphate buffered saline (PBS).
A 100 μl aliquot was taken and diluted in 0.1 % Triton X-100 and plated on diaminopimelic acid (DAP) supplemented congo red (Sigma) tryptic soy agar for 15D or TSA without DAP for SC602. The remainder was again pelleted and resuspended in 1.3 ml PM-2 buffer. 30 μl of 10% Triton X-100 was added and the sample was incubated at room temperature and vortexed frequently for ten minutes to lyse the BHK cells. The cellular debris was pelleted for […] at 13500×g and 4° C.
Four hundred microliters of the supernatant was combined with 400 μl of PM-2 buffer in a spectrophotometric cuvette and allowed to equilibrate to 37° C. 200 μl of ONPG reagent is then added to each sample and any applicable standards. The samples were incubated at 37° C. and timed until a vibrant yellow color appeared, at which point the reaction was complete. The absorbance of each sample was measured at 420 nm and recorded. β-galactosidase activity was calculated as Ab420×380/Time (minutes). To determine the total amount of protein present in each assayed sample 200 μl of cold (−20° C.) acetone was added to 50 μl of the above supernatants, vortexed thoroughly and stored at −20° C. for 30 minutes. The samples were then pelleted for 10 minutes at 14000 rpm and the supernatant was discarded. Samples were allowed to dry in a heated evacuating centrifuge and then resuspended in 50 μl dissociation buffer. The protein concentration was then determined using a standard BCA (Pierce) protein determination protocol. Results are reported as β-galactosidase activity per mg of protein.

Experiment [2] concerns BHK cells. The experiment can be described thus: viable bacterial counts recovered from infected BHK cells. It counts as cell-based, baby hamster. As to the method:
as §1
Harvesting of cells was carried out as follows. At the appropriate time point media was removed from the flasks and the flasks were rinsed thoroughly with Hank's Balanced Salts followed by Edda Twiddy's EDTA. Flasks were then treated with 5 milliliters of Trypsin-EDTA for 5 minutes at 37° C. and 5% CO2 to lift the adherent mammalian cells from the flask. Ten milliliters of room temperature DMEM with serum was added to inactivate the Trypsin-EDTA. The cells were pelleted at 2000 rpm for 12 minutes at room temperature and resuspended in 10 milliliters of phosphate buffered saline (PBS). […]

Regarding `C[C@@H]1C[C@@H]([C@H](O)CC2CC(=O)NC(=O)C2)C(=O)[C@@H](C)C1` [cyclohexamide], the “effect on β-galactosidase activity” value with BHK cells [1] (15D(pCMVβ) infected BHK cells, treated at various times after the adherence/invasion step) was “inhibition of β-galactosidase activity”. Besides, the “loss of viable bacteria” value with BHK cells [2] (15D(pCMVβ) infected BHK cells, treatment right after to two hours after the adherence/invasion step) is reported as 1 log.

For the compound `CC[C@H]1OC(=O)[C@H](C)[C@@H](O[C@H]2C[C@@](C)(OC)[C@@H](O)[C@H](C)O2)[C@H](C)[C@@H](O[C@@H]2O[C@H](C)C[C@H](N(C)C)[C@H]2O)[C@](C)(O)C[C@@H](C)CN(C)[C@H](C)[C@@H](O)[C@]1(C)O` [azithromycin], in the experiment with BHK cells [1] (addition 1 to 2 hours after adherence/invasion compared to just after, SC602(pCMVβ)), the “effect of time of addition on β-galactosidase activity” value is “greatly increased the amount of β-galactosidase activity”. For the same compound, the “ability of the antimicrobial to mediate bacterial plasmid DNA delivery” value in the experiment with BHK cells [1] (SC602(pCMVβ)) is reported as “capable of mediating bacterial-based plasmid DNA delivery”. For the same compound, in the experiment with BHK cells [2] (after the addition of azithromycin to infected BHK cells), the “effect on number of viable bacteria” value is given as “no dramatic decrease in the number of viable bacteria was detected”.

For the compound `O=C(O)c1cn(C2CC2)c2cc(N3CCNCC3)c(F)cc2c1=O` [ciprofloxacin], in the experiment on BHK cells [1] (15D(pCMVβ) infected monolayers treated just after the adherence/invasion step), the “effect on delivery of plasmid DNA by 15D(pCMVβ)” value is “inhibited delivery of the plasmid DNA”. The “ability of the antimicrobial to mediate bacterial plasmid DNA delivery” value in the experiment with BHK cells [1] (SC602(pCMVβ)) was “unable to mediate DNA delivery”.
